Reference: patent publication US8153817B2, “Synthesis of methyl nonactate derivatives” (Ohio University, priority 2006, dated 2012)
Values after ≈ are worked out from the molar mass of the structure shown.

test system: B. subtilis; test: MIC screen against B. subtilis; format: cell-based; conditions: Bacillus subtilis; B. subtilis (gram positive); read-out: MIC against B. subtilis
Description: In comparison ampicillin, which is an antibiotic in wide therapeutic use, has an MIC of 100 μM in this screen.

SMILES | MIC
CC1(C)S[C@@H]2[C@H](NC(=O)[C@H](N)c3ccccc3)C(=O)N2[C@H]1C(=O)O [ampicillin, reference compound] | 100 µM (≈ 34.9 µg/mL)

same assay, conditions: Bacillus subtilis; Table 1, selected triazoloamides, B. subtilis; read-out: MIC

SMILES | MIC
C[C@H](C(=O)NCCc1ccccc1)[C@@H]1CC[C@H](C[C@@H](C)n2cc(-c3ccccc3)nn2)O1 | 250 µM (≈ 108 µg/mL)
C[C@H](C(=O)Nc1ccccc1)[C@@H]1CC[C@H](C[C@@H](C)n2cc(CN3CCC(c4ccccc4)CC3)nn2)O1 | 500 µM (≈ 251 µg/mL)
C[C@@H](C(=O)N(C)Cc1ccccc1)[C@H]1CC[C@@H](C[C@H](C)n2cc(CN3CCN(c4ccccc4)CC3)nn2)O1 | 1000 µM (≈ 531 µg/mL)
COc1ccc(CNC(=O)[C@@H](C)[C@@H]2CC[C@H](C[C@@H](C)n3cc(CN4CCC(c5ccccc5)CC4)nn3)O2)cc1 | 1000 µM (≈ 546 µg/mL)
COc1ccc(NC(=O)[C@@H](C)[C@@H]2CC[C@H](C[C@@H](C)n3cc(-c4ccccc4)nn3)O2)cc1 | 1000 µM (≈ 435 µg/mL)
C[C@H](C(=O)NC1CCCC1)[C@@H]1CC[C@H](C[C@@H](C)n2cc(CN3CCN(c4ccccc4)CC3)nn2)O1 | 2000 µM (≈ 989 µg/mL)
C[C@H](C(=O)N1CCOCC1)[C@@H]1CC[C@H](C[C@@H](C)n2cc(CN3CCN(c4ccccc4)CC3)nn2)O1 | 2000 µM (≈ 993 µg/mL)
C[C@H](C(=O)NC1CCCCC1)[C@@H]1CC[C@H](C[C@@H](C)n2cc(CN3CCN(c4ccccc4)CC3)nn2)O1 | 2000 µM (≈ 1020 µg/mL)
C[C@H](C(=O)N(C)C)[C@@H]1CC[C@H](C[C@@H](C)n2cc(-c3ccccc3)nn2)O1 | 4000 µM (≈ 1430 µg/mL)
C[C@H](C(=O)N1CCN(c2ccccc2)CC1)[C@@H]1CC[C@H](C[C@@H](C)n2cc(CN3CCN(c4ccccc4)CC3)nn2)O1 | 4000 µM (≈ 2290 µg/mL)
